Measurements from patent US20260070927A1, “INDAZOLE MACROCYCLES FOR THE TREATMENT OF AUTOIMMUNE DISEASE” (Hoffmann-La Roche Inc., priority 2022, published 2026).

Tests used:
[1] = Metabolic (liver microsomal) stability assay; settings: human liver microsomes, 1 μM test compound
Procedure: The liver microsomal stability assay is used for early assessment of metabolic stability of a test compound in liver microsomes.
Liver microsomes were preincubated with test compound for 10 minutes at 37° C. in 100 mM potassium phosphate buffer, pH 7.4. The reactions were initiated by adding NADPH regenerating system. The final incubation mixtures contained 1 μM test compound, 0.5 mg/mL liver microsomal protein, 1 mM MgCl2, 1 mM NADP, 1 unit/mL isocitric dehydrogenase and 6 mM isocitric acid in 100 mM potassium phosphate buffer, pH 7.4. After incubation times of 0, 3, 6, 9, 15 and 30 minutes at 37° C., 300 μL of cold acetonitrile (including internal standard) was added to 100 μL incubation mixture to terminate the reaction. Following precipitation and centrifugation, the amount of compound remaining in the samples were determined by LC-MS/MS. Controls of no NADPH regenerating system at zero and 30 minutes were also prepared and analyzed.

STING (IFN-β in hPBMC) = test: hPBMC cytokine functional assay (IFN-β decrease after Baculovirus stimulation); type: cell-based; settings: Homo sapiens, Baculovirus MOI 40, 24 hours, read-out: hPBMC_IC50
Procedure: The inhibition of STING by compounds could be measured by the decrease of IFN-β in hPBMC, which is stimulated by a double stranded DNA virus Baculoviurs (Purchased from Genescript, pCMV-Dest Vector virus generation P2 BV stock virus, Sf-900 II medium with 5% FBS, Lot C9835DK230-2/P4DL001). Frozen hPBMC cells (purchased from Stemcell Technologies, cat number is 70025, Lot 191070803C) were thawed at 37° C. water bath, then cells were re-suspended in 50 ml tube using 20 ml Cell culture medium, and then centrifuged for 5 min at 2000 rpm before the supernatant was removed carefully. The cells were re-suspended in culture medium (RPMI-1640 with 1.5 g/L NaHCO3, 4.5 g/L glucose, 10 mM HEPES and 1 mM Na-pyruvate, 10% HI-FBS); 65 μL of the cell suspension was dispensed into 384 well plate (70K cells/well) by Multidrop Combi with at least 3 hours incubation at 37° C., 5% CO2 cell incubator.
Then 4 μL of compound solution per well (final 0.5% DMSO) was transferred by Agilent Bravo followed by infection with 11 μL of Baculovirus at a final MOI of 40. The level of IFN-β secreted in the supernatant of hPBMC was determined after 24 hours of incubation at 37° C. cell incubator by human IFN-β HTRF assay (Cisbio, cat: 62HIFNBPEH) following the manufacture's instruction. CellTiter-Glo kit (Promega, cat: G7573) was applied for the cell viability evaluation using Envision.

[2] = molecular target: human stimulator of interferon genes (STING) (139-379) (Homo sapiens (Human), UniProt Q86WV6); test: Microliter plate-based TR-FRET competition-binding assay for binders of STING; settings: Alexa488 probe, read-out: FRET_IC50
Procedure: This is the competition-binding assay to test the compounds' potency to the C-terminal Domain (CTD) and ligand-binding domain of human stimulator of interferon genes (STING). STING (139-379, Q86WV6, http://www.uniprot.org/uniprot) recombinant protein (in 20 mM Tris, 150 mM NaCl, pH 8.0, and expression in Escherichia coli (E. coli) BL21 (DE3)) with a C-terminal flag-tag was employed for the assay. When Alexa-488 labeled active site probe (refer to patent WO2017/175156 A1) bounds to STING (139-379), it accepts the 485 nm emission from Tb-M2-Flag-STING and results in an increase in fluorescence at 520 nm. Compounds that compete for the probe-binding site will reduce 520 nm signal. The assay was run in proxiplate-384 plus (PerkinElmer, cat: 60150300) containing of 2.5 nM STING, 2.5 nM M2-Tb (Cisbio, 61FG2TLA, Lot: 17 A) and 250 nM Alexa488 probe. Plates were centrifuged for 1 min at 1000 rpm, incubated for 30 min at room temperature, and then measured the dual fluorescence emission at 520 nm/485 nM following 320 nm laser excitation on an Envision plate reader (Perkin-Elmer). The compounds' effect on the STING binding is detected by measuring ratiometric fluorescence from time-resolved FRET. The percentage of inhibition of at each compound concentration is calculated on the basis of their changes of TR-FRET efficiency relative to the change of TR-FRET caused by positive control 2′3′cGAMP (Sigma, cat: SML1229).

human stimulator of interferon genes (STING) (139-379), sequence (Q86WV6 139-379): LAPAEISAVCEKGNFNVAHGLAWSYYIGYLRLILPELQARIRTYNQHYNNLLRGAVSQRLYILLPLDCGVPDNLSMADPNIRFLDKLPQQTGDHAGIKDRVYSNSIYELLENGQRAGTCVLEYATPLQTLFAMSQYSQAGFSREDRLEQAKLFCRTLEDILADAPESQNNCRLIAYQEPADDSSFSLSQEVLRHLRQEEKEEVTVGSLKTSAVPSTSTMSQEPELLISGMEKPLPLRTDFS

Compound | Clearance of human microsome [1] | IC50 (STING (IFN-β in hPBMC)) | IC50 [2]
Cn1cnc(CN2CCCc3c4c(cccc4nn3C)-c3cccc(c3)O[C@H]3C[C@@H](C2=O)N(c2ncnc4c2cnn4-c2ccc(F)cc2F)C3)n1 [Example 16, (8S,11S)-10-[1-(2,4-difluorophenyl)pyrazolo[3,4-d]pyrimidin-4-yl]-18-methyl-13-[(1-methyl-1,2,4-triazol-3-yl)methyl]-7-oxa-10,13,18,19 tetrazapentacyclo[15.6.1.1^2,6.1^8,11.0^20,24]hexacosa-1(23),2(26),3,5,17(24),19,21-heptaen-12-one] | 15.9 mL/min/kg | 384 nM | 3.1 nM
Cn1nc2cccc3c2c1CCCN(CC1CC1)C(=O)[C@@H]1C[C@@H](CN1c1ncnc2c1cnn2-c1ccc(F)cc1F)Oc1cc-3ncn1 [Example 18, (8S,11S)-13-(cyclopropylmethyl)-10-[1-(2,4-difluorophenyl)pyrazolo[3,4-d]pyrimidin-4-yl]-18-methyl-7-oxa-3,5,10,13,18,19-hexazapentacyclo[15.6.1.1^2,6.1^8,11.0^20,24]hexacosa-1(23),2(26),3,5,17(24),19,21-heptaen-12-one] | 12.4 mL/min/kg | 491 nM | 12.5 nM
Cn1nc2cccc3c2c1CCCN(CC1CC1)C(=O)[C@@H]1C[C@@H](CN1c1ncnc2c1cnn2-c1ccc(F)cc1F)Oc1nccc-3n1 [Example 19, (8S,11S)-13-(cyclopropylmethyl)-10-[1-(2,4-difluorophenyl)pyrazolo[3,4-d]pyrimidin-4-yl]-18-methyl-7-oxa-5,10,13,18,19,26-hexazapentacyclo[15.6.1.1^2,6.1^8,11.0^20,24]hexacosa-1(23),2(26),3,5,17(24),19,21-heptaen-12-one] | 10.0 mL/min/kg | 976 nM | 13.1 nM
Cn1nc2cccc3c2c1CCCN(CCO)C(=O)[C@@H]1C[C@@H](CN1c1ncnc2c1cnn2-c1ccc(F)cc1F)Oc1cccc-3c1 [Example 22, (8S,11S)-10-[1-(2,4-difluorophenyl)pyrazolo[3,4-d]pyrimidin-4-yl]-13-(2-hydroxyethyl)-18-methyl-7-oxa-10,13,18,19-tetrazapentacyclo[15.6.1.1^2,6.1^8,11.0^20,24]hexacosa-1(23),2(26),3,5,17(24),19,21-heptaen-12-one] | 15.5 mL/min/kg | 264 nM | 0.2 nM
CN(C)CCN1CCCc2c3c(cccc3nn2C)-c2cccc(c2)O[C@H]2C[C@@H](C1=O)N(c1ncnc3c1cnn3-c1ccc(F)cc1F)C2 [Example 24, (8S,11S)-10-[1-(2,4-difluorophenyl)pyrazolo[3,4-d]pyrimidin-4-yl]-13-[2-(dimethylamino)ethyl]-18-methyl-7-oxa-10,13,18,19-tetrazapentacyclo[15.6.1.1^2,6.1^8,11.0^20,24]hexacosa-1(23),2(26),3,5,17(24),19,21-heptaen-12-one] | 14.9 mL/min/kg | 711 nM | 8.2 nM
Cn1nc2cccc3c2c1CCCN(CCCN1CC2(COC2)C1)C(=O)[C@@H]1C[C@@H](CN1c1ncnc2c1cnn2-c1ccc(F)cc1F)Oc1cccc-3c1 [Example 31, (8S,11S)-10-[1-(2,4-difluorophenyl)pyrazolo[3,4-d]pyrimidin-4-yl]-18-methyl-13-[3-(2-oxa-6-azaspiro[3.3]heptan-6-yl)propyl]-7-oxa-10,13,18,19-tetrazapentacyclo[15.6.1.1^2,6.1^8,11.0^20,24]hexacosa-1(23),2(26),3,5,17(24),19,21-heptaen-12-one] | 12.4 mL/min/kg | 517 nM | 7.2 nM
CN1CCN(CCCN2CCCc3c4c(cccc4nn3C)-c3cccc(c3)O[C@H]3C[C@@H](C2=O)N(c2ncnc4c2cnn4-c2ccc(F)cc2F)C3)CC1 [Example 32, (8S,11S)-10-[1-(2,4-difluorophenyl)pyrazolo[3,4-d]pyrimidin-4-yl]-18-methyl-13-[3-(4-methylpiperazin-1-yl)propyl]-7-oxa-10,13,18,19-tetrazapentacyclo[15.6.1.1^2,6.1^8,11.0^20,24]hexacosa-1(23),2(26),3,5,17(24),19,21-heptaen-12-one] | 11.5 mL/min/kg | 1100 nM | 3.2 nM
CN1CC2CC1CN2CCCN1CCCc2c3c(cccc3nn2C)-c2cccc(c2)O[C@H]2C[C@@H](C1=O)N(c1ncnc3c1cnn3-c1ccc(F)cc1F)C2 [Example 34, (8S,11S)-10-[1-(2,4-difluorophenyl)pyrazolo[3,4-d]pyrimidin-4-yl]-18-methyl-13-[3-(5-methyl-2,5-diazabicyclo[2.2.1]heptan-2-yl)propyl]-7-oxa-10,13,18,19-tetrazapentacyclo[15.6.1.1^2,6.1^8,11.0^20,24]hexacosa-1(23),2(26),3,5,17(24),19,21-heptaen-12-one] | 6.1 mL/min/kg | 2490 nM | 7 nM
Cn1nc2cccc3c2c1CCCN(CCCn1cnnn1)C(=O)[C@@H]1C[C@@H](CN1c1ncnc2c1cnn2-c1ccc(F)cc1F)Oc1cccc-3c1 [Example 36, (8S,11S)-10-[1-(2,4-difluorophenyl)pyrazolo[3,4-d]pyrimidin-4-yl]-18-methyl-13-[3-(tetrazol-1-yl)propyl]-7-oxa-10,13,18,19-tetrazapentacyclo[15.6.1.1^2,6.1^8,11.0^20,24]hexacosa-1(23),2(26),3,5,17(24),19,21-heptaen-12-one] | 11.9 mL/min/kg | 1570 nM | 1.3 nM
Cn1nc2cccc3c2c1CCCN(CCC(C)(C)O)C(=O)[C@@H]1C[C@@H](CN1c1ncnc2c1cnn2-c1ccc(F)cc1F)Oc1cccc-3c1 [Example 40, (8S,11S)-10-[1-(2,4-difluorophenyl)pyrazolo[3,4-d]pyrimidin-4-yl]-13-(3-hydroxy-3-methyl-butyl)-18-methyl-7-oxa-10,13,18,19-tetrazapentacyclo[15.6.1.1^2,6.1^8,11.0^20,24]hexacosa-1(23),2(26),3,5,17(24),19,21-heptaen-12-one] | 15.6 mL/min/kg | 708 nM | 8.6 nM
Cn1nc2c(F)ccc3c2c1CCCN(CCCN1CCOCC1)C(=O)[C@@H]1C[C@@H](CN1c1ncnc2c1cnn2-c1ccc(F)cc1F)Nc1cccc-3n1 [Example 44, (8S,11S)-10-[1-(2,4-difluorophenyl)pyrazolo[3,4-d]pyrimidin-4-yl]-21-fluoro-18-methyl-13-(3-morpholinopropyl)-7,10,13,18,19,26-hexazapentacyclo[15.6.1.1^2,6.1^8,11.0^20,24]hexacosa-1(23),2(26),3,5,17(24),19,21-heptaen-12-one] | 15.8 mL/min/kg | 321 nM | 6.3 nM
COc1cc(F)ccc1-n1ncc2c(N3C[C@@H]4C[C@H]3C(=O)N(CCCN3CCOCC3)CCCc3c5c(ccc(F)c5nn3C)-c3cccc(n3)N4)ncnc21 [Example 45, (8S,11S)-21-fluoro-10-[1-(4-fluoro-2-methoxy-phenyl)pyrazolo[3,4-d]pyrimidin-4-yl]-18-methyl-13-(3-morpholinopropyl)-7,10,13,18,19,26-hexazapentacyclo[15.6.1.1^2,6.1^8,11.0^20,24]hexacosa-1(23),2(26),3,5,17(24),19,21-heptaen-12-one] | 15.9 mL/min/kg | 569 nM | 3.9 nM
